Each structure is given as a SMILES string.

In patent publication US20150233926A1, “METHOD FOR SPECIFICALLY DETECTING A MATRIX METALLOPROTEINASE (MMP) WHICH IS ONLY OF INTEREST IN THE ACTIVE FORM THEREOF, IN A SAMPLE” (priority 2012, published 2015) one finds Ki data, which are given here for four compounds.

One assay has as its target MMP12h (Homo sapiens, UniProt P39900). The note with it: read-out: Ki with respect to MMP12h; competitor used in strip and EIA tests; described in Devel et al, 2006; cited from earlier work.
For the next assay, the target named is human MMP 3 (Homo sapiens, UniProt P08254). The experiment in a line: Ki determination with fluorogenic substrate MCA-Mat, human MMP3. Type of assay: biochemical. The note with it: recombinant MMP 3 h at 0.3 nM, 100 μL, MCA-Mat 15 μM. How it is done: (§1) The inhibition constants Ki of compounds P1, P2, and P3 were determined in comparison to human MMPs 2, 3, 8, 9, 12, 13, 14 and to murine MMP12. Recombinant proteases were used in volumes of 100 μL at concentrations of 0.05, 0.3, 0.03, 0.05, 0.03, 0.015, and 0.5 nM respectively for human MMPs 2, 3, 8, 9, 12, 13, 14, and at a concentration of 0.1 nM for murine MMP12. […] Recall that the lower the Ki of a compound, the greater its potential for inhibiting the chosen target.
human MMP 3, sequence (P08254 100-477): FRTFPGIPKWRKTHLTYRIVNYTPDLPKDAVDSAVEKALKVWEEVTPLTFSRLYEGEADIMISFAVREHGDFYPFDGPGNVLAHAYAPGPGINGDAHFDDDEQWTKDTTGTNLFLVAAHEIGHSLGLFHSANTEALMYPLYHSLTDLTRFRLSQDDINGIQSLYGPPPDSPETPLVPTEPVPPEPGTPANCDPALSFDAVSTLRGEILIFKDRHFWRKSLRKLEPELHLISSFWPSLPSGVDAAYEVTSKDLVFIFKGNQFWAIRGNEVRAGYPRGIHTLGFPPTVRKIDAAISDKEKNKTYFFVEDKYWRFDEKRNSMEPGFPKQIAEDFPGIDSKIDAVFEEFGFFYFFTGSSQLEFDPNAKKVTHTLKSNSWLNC

A further assay concerns the target human MMP 13 (Homo sapiens, UniProt P45452). The experiment in a line: Ki determination with fluorogenic substrate MCA-Mat, human MMP13. In kind it is biochemical. To be noted: recombinant MMP 13 h at 0.015 nM, 100 μL, MCA-Mat 15 μM. How it is done:
as §1

In the next assay the target is human MMP 12 (Homo sapiens, UniProt P39900). The experiment in a line: Ki determination with fluorogenic substrate MCA-Mat, human MMP12. In kind it is biochemical. To be noted: recombinant MMP 12 h at 0.03 nM, 100 μL, MCA-Mat 15 μM. The procedure:
as §1

The target in another assay is murine MMP12 (Mus musculus, UniProt P34960). The experiment in a line: Ki determination with fluorogenic substrate MCA-Mat, murine MMP12. Type of assay: biochemical. The note with it: recombinant MMP 12 m at 0.1 nM, 100 μL, MCA-Mat 15 μM. How it is done:
as §1

The target of the next assay is human MMP 14 (Homo sapiens, UniProt P50281). The experiment in a line: Ki determination with fluorogenic substrate MCA-Mat, human MMP14. To be noted: recombinant MMP 14 h at 0.5 nM, 100 μL, MCA-Mat 15 μM. Type of assay: biochemical. How it is done: as §1
The target of a further assay is human MMP 9 (Homo sapiens, UniProt P14780). The experiment in a line: Ki determination with fluorogenic substrate MCA-Mat, human MMP9. In kind it is biochemical. The note with it: recombinant MMP 9 h at 0.05 nM, 100 μL, MCA-Mat 15 μM. The procedure: as §1
human MMP 9, sequence (P14780 94-707): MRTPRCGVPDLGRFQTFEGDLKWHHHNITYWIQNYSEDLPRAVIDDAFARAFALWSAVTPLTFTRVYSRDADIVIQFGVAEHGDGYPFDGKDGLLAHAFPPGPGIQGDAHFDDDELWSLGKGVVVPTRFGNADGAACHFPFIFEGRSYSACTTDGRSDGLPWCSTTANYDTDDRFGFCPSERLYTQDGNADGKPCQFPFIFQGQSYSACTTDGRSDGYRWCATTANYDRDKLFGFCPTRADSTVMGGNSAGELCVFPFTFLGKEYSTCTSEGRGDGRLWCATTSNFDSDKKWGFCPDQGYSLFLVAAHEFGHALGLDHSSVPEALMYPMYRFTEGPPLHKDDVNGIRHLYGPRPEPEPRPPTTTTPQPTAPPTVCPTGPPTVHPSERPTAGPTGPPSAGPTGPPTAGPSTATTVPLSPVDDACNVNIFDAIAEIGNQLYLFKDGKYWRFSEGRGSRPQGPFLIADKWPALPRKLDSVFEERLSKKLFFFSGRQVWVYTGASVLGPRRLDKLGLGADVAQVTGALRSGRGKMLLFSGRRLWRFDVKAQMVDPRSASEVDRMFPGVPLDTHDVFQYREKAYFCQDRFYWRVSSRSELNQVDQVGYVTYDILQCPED
The target in a further assay is human MMP 8 (Homo sapiens, UniProt P22894). The experiment in a line: Ki determination with fluorogenic substrate MCA-Mat, human MMP8. In kind it is biochemical. To be noted: recombinant MMP 8 h at 0.03 nM, 100 μL, MCA-Mat 15 μM. The procedure:
as §1

A further assay has as its target T1, human MMP 2 (Homo sapiens, UniProt P08253).
T1 sequence (P08253 110-660): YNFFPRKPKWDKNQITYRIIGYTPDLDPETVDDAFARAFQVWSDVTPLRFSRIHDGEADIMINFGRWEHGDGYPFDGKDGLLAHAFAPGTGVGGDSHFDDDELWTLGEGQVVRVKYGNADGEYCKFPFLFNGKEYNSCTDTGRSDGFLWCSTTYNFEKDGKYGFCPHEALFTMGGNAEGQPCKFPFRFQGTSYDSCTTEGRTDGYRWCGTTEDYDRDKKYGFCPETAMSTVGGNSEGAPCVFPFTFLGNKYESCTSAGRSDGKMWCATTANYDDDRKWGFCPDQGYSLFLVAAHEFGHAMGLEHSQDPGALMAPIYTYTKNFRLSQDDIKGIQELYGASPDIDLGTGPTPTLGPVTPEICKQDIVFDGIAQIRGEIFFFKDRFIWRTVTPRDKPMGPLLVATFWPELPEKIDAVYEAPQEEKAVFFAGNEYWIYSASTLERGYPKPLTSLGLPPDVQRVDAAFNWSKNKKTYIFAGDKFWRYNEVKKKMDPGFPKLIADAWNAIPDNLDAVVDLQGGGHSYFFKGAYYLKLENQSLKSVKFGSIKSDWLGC
The experiment in a line: Ki determination with fluorogenic substrate MCA-Mat, human MMP2. The note with it: recombinant MMP 2 h at 0.05 nM, 100 μL, MCA-Mat 15 μM. In kind it is biochemical. How it is done: as §1

human MMP 8, sequence (P22894 101-467): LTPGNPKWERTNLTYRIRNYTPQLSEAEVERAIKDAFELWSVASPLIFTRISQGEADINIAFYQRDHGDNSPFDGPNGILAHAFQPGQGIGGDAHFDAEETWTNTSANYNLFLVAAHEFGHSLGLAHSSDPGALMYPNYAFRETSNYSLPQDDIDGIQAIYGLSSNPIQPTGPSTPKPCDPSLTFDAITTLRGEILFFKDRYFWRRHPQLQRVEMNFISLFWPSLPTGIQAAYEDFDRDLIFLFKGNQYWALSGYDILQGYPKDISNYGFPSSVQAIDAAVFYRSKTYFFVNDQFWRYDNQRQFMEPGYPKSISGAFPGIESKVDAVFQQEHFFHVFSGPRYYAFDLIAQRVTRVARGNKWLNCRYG
murine MMP12, sequence (P34960 110-473): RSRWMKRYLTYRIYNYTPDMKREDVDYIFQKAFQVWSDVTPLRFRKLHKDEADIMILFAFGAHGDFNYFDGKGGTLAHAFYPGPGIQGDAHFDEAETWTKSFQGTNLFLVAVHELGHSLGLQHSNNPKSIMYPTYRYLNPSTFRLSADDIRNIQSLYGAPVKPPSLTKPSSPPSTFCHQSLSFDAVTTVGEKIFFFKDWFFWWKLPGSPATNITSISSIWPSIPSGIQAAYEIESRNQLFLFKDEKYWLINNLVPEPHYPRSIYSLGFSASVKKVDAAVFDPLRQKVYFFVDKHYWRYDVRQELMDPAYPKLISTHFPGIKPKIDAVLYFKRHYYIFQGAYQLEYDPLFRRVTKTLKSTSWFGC
human MMP 12, sequence (P39900 106-470): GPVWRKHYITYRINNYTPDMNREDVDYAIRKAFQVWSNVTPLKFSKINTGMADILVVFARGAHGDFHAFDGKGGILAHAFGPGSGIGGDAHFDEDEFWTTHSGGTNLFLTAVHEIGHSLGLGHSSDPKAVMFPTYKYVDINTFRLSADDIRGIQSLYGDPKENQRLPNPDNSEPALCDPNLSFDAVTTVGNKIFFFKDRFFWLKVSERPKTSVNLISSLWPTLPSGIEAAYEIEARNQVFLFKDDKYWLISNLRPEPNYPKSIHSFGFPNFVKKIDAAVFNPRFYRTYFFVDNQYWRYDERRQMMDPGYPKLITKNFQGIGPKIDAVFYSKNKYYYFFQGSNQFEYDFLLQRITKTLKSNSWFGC
MMP12h, sequence (P39900 106-470): as above

On to `NC(=O)C(CCC(=O)O)NC(=O)C(CCC(=O)O)NC(=O)C(Cc1cc(-c2ccc(-c3cccc(Cl)c3)cc2)no1)CP(=O)(O)c1ccc(Br)cc1` (stereo not shown) [RXP470.1], for which the Ki at MMP12h is 0.2 nM.
Regarding `CCC(=O)NOCCOCCOCCOCCOCCOCCOCCOCCOCCOCCOCCOCCOCOCCOCCOCCOCCOCCOCCOCCOCCOCCOCCOCCOCCOCCOCCOCCC(=O)N1CCC[C@H]1C(=O)N[C@@H](C)C(=O)N[C@@H](Cc1ccccc1)P(=O)(O)CC(Cc1cc(-c2ccc(-c3cccc(Cl)c3)cc2)no1)C(=O)N[C@@H](Cc1ccc(O)cc1)C(=O)N[C@@H](C)C(=O)NCC(=O)NCCCOCCOCCOCCCNC(=O)CCCCC1SCC2NC(=O)NC21` (stereo partly shown) [Ligand P3], the Ki on human MMP 3 came to 1.55 nM; on human MMP 13, 0.07 nM; at human MMP 12, 0.26 nM; on murine MMP12 it was 0.66 nM; on human MMP 14 it was 1.82 nM; at human MMP 9, 0.73 nM. In addition, the Ki on human MMP 8 came to 0.47 nM; on human MMP 2, 0.3 nM.
Turning to `CC(=O)SCC(=O)NCCOCCOCCOCCOCCOCCOCCOCCOCCOCCOCCOCCOCCOCCOCCOCCOCCOCCOCCOCOCCOCCOCCOCCOCCOCCOCCOCCOCCC(=O)NCCCOCCOCCOCCCNC(=O)CNC(=O)[C@H](C)NC(=O)[C@H](Cc1ccc(O)cc1)NC(=O)C(Cc1cc(-c2ccc(-c3cccc(Cl)c3)cc2)no1)CP(=O)(O)[C@H](Cc1ccccc1)NC(=O)[C@H](C)NC(=O)[C@@H]1CCCN1C(C)=O` (stereo partly shown) [Ligand P1], the Ki is 0.75 nM at human MMP 3; 0.017 nM at human MMP 13; 0.03 nM on human MMP 12; 0.08 nM on murine MMP12; 0.53 nM at human MMP 14; 0.28 nM on human MMP 9. Moreover, the Ki on human MMP 8 is 0.09 nM; at human MMP 2, 0.12 nM.
With `CC(=O)N1CCC[C@H]1C(=O)N[C@@H](C)C(=O)N[C@@H](Cc1ccccc1)P(=O)(O)CC(Cc1cc(-c2ccc(-c3cccc(Cl)c3)cc2)no1)C(=O)N[C@@H](Cc1ccc(O)cc1)C(=O)N[C@@H](C)C(=O)NCC(=O)NCCCOCCOCCOCCCNC(=O)CCOCCOCCOCCOCCOCCOCCOCCOCCOCOCCOCCOCCOCCOCCOCCOCCOCCOCCOCCOCCOCCOCCOCCOCCNC(=O)CCCN1C(=O)C=CC1=O` (stereo partly shown) [Ligand P2], the Ki was 1 nM on human MMP 3; 0.03 nM at human MMP 13; 0.05 nM on human MMP 12; 0.09 nM at murine MMP12; 0.7 nM at human MMP 14; 0.48 nM on human MMP 9. For the same compound, the values for the Ki at human MMP 8 and on human MMP 2 were 0.12 nM and 0.15 nM, respectively.

The term Ki denotes the equilibrium dissociation constant of an inhibitor or competing ligand from its target.
